In ChEMBL document CHEMBL2440118, “Triazole-dithiocarbamate based selective lysine specific demethylase 1 (LSD1) inactivators inhibit gastric cancer cell growth, invasion, and migration” (J Med Chem, 2013) one finds IC50 and inhibition data, which are given here for two compounds.

Calls of active or inactive are those of the source. The calls are words filed in the database; no cut-off is given here.

Assay [1] deals with T1, Amine oxidase [flavin-containing] A (Homo sapiens, UniProt P21397).
T1 sequence (P21397 whole entry): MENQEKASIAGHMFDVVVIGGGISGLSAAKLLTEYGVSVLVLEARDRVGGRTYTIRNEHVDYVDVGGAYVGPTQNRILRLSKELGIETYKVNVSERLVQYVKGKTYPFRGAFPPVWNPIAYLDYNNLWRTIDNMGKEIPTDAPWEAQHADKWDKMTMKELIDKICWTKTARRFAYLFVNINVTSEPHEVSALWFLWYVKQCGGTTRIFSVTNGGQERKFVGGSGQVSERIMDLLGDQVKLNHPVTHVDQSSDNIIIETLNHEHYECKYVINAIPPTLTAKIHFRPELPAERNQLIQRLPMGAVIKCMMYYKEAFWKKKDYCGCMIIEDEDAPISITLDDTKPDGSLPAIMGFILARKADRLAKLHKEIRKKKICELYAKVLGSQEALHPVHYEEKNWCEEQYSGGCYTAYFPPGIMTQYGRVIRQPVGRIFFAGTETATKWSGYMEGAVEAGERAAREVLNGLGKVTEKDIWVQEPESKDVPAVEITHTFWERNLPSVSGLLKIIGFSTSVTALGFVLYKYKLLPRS

Assay [2] has as its target T2, Amine oxidase [flavin-containing] B (Homo sapiens, UniProt P27338).
T2 sequence (P27338 whole entry): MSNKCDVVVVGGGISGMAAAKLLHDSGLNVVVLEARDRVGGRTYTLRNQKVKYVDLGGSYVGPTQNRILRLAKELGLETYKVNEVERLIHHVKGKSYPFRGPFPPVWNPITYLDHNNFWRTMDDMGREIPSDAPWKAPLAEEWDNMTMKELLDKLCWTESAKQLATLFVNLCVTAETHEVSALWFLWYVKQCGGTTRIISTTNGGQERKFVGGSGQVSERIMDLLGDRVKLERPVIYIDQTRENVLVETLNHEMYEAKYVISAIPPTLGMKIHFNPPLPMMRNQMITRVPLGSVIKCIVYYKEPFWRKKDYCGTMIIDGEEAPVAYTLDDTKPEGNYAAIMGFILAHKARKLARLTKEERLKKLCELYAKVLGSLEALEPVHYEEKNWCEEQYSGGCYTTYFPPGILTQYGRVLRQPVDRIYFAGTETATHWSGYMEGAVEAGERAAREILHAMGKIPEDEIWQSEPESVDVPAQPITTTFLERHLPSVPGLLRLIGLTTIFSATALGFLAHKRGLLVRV

Assay [3] addresses Lysine-specific histone demethylase 1A (Homo sapiens) (UniProt O60341). The assay is described as follows: Inhibition of LSD1 in human MGC803 cells assessed as elevation of E-cadherin protein expression at 0.02 to 1 uM after 48 hrs by Western blotting analysis relative to control. It is filed as cell-based. The note with it: MGC-803.
The target is the same in assay [4]. The conditions noted are these: 0.5 to […].
The target is the same in assay [5]. The note with it: 0.5 to […]. The source holds these as a separate data set.
The target is the same in assay [6]. The experiment in a line: Inhibition of LSD1-snail interaction in human MGC803 cells at 0.25 uM after 48 hrs by immunoprecipitation assay. The class given is cell-based. The conditions noted are these: MGC-803.
Assay [7] has the same target.
Assay [8] shares this target. The source holds these as a separate data set.
The target is the same in assay [9]. The note with it: 0.5 to […]. This is another data set of the same source.
Assay [10] has the same target. The note with it: 312.5 uM.

Consider `CC(C)(C)OC(=O)N1CCN(C(=S)SCc2cn(Cc3ccccc3F)nn2)CC1`, for which the IC50 in assay [1] is > 1250 µM; in [2], 791 µM.

Turning to `Cc1ccc(Cn2cc(CSC(=S)N3CCN(C(=O)OC(C)(C)C)CC3)nn2)cc1`, the IC50 in assay [1] and in assay [2] was > 1250 µM each time. Also, the inhibition entry in [3], in assay [4], in assay [5], in [6], in [7] and in assay [8] was “Active” each time. The inhibition entry in assay [9] and in assay [10] was “Active” throughout.
